We go through 88 molecules from a melting point compilation (Tetko et al.; mined from patent text by program, amines drawn as free bases though some values may be those of a salt).

The structures appear in SMILES notation. Some results are limits rather than exact numbers.

The molecule `Cc1[nH]c(=O)n(-c2cc(C(=O)OC(C)C)c(Cl)cc2F)c(=O)c1C` came in with a melting point of 155 to 157 °C. In the case of `O=Cc1cccc2nnsc12` it was 134 to 136 °C; in that of `COC(=O)Nc1cc(-c2nc(-c3ccco3)no2)ccc1Cl`, 200 to 201 °C. In turn, `CCCCc1ncc(/C=C(\Cc2cccs2)C(=O)O)n1Cc1ccc(C(=O)OC)cc1` returned a melting point of 217 to 220 °C. Then `Cc1cn(-c2nccc3[nH]c(=O)ccc23)cn1`, with 257 to 259 °C; and `O=C1CCCc2ncc(Cl)cc21`, with 84 to 86 °C; and `O=C(OC1c2nccnc2C(=O)N1c1ccc2ccc(Cl)cc2n1)N1CCNCC1` (stereo not drawn), with 242 °C. Then `COCC(C)N(C(=O)CCl)c1c(C)cccc1C` (stereo not drawn), with 44 to 46 °C; and `N=C(N)Cc1ccccc1-n1cnc2cnc3ccc(-c4ccccc4)cc3c21`, with 261 to 263 °C.

For the molecule `CC(C#Cc1cccc(C=Cc2ccccn2)c1)N(O)C(N)=O` (stereo not drawn), the melting point fell in the range of 122 to 126 °C. As to `O=C(CCC(=O)N1CCC(c2ccc(Cl)cc2)CC1)c1ccc2c(c1)CNCC2`, the melting point was in the range of 121 to 122 °C. `CNc1ncc2c(-c3cccc(Cl)c3)cc(-c3ccc(C(=O)O)cc3)c(O)c2n1`: the melting point was 291 to 296 °C. Take `CCOC(=O)Cc1csc(NC(=O)NC)n1`: the melting point is 158 to 159 °C.

In the case of `COc1ccc2[nH]c(Br)c(CCNC(=O)C3CC3)c2c1`, the melting point lay within 82 to 83 °C. Molecule `CC(C)(C)C(=O)C(Oc1ccc(Cl)cc1)n1ncnc1S` (stereo not drawn) gave a melting point of 134 to 136 °C. Take `Nc1cc(N2C(=O)CCc3ccccc32)ccn1`: the melting point lay within 204 to 205 °C.

`CCOC1(OC)CC(C)=C(CCc2cccc(OC)c2)C=C1OC` (stereo not drawn) gave a melting point of 178 to 180 °C. Regarding `NCCn1c(-c2ccc(Br)cc2)csc1=Nc1ccccc1`, the melting point lay in the range of 58 to 61 °C. In turn, `COC(=O)[C@H](CS)NC(=O)[C@@H](O)CO` yielded a melting point of 90 to 92 °C. For the molecule `NCc1ccc(N2C(=O)N(c3ccccc3Br)Cc3cnc(Nc4ccccc4)nc32)cc1`, the melting point fell in the range of 133 to 136 °C. In the case of `CCn1cc(C(=O)O)c(=O)c2cc([N+](=O)[O-])c(-c3cc(C)nc(C)c3)cc21` it was 289 to 291 °C; in that of `COc1ccc2nc(CC(C)C)c(CN)c(-c3ccccc3)c2c1`, 73 to 76 °C; in that of `CCOC(=O)CNc1ccc2c3c(n(CCCNC(=O)OC(C)(C)C)c(=O)c2c1)-c1ccccc1C3=O`, 203 to 204 °C. The molecule `COc1cc(COc2cc(CCC(=O)O)n(-c3ccccc3)n2)ccc1OCc1nc(-c2ccccc2)oc1C` showed a melting point of 157 to 158 °C. On to `O=C(O)C1Cc2ccccc2N1c1ncccn1` (stereo not drawn), for which the melting point was in the range of 249 to 250 °C. In the case of `CCSc1sc(C#N)c(N(C)C(C)=O)c1C#N` it was 68 °C. `CCOC(=O)Nc1cc(=O)c2cc(Oc3ccccc3)c(NS(C)(=O)=O)cc2o1` gave a melting point of 207 to 209 °C. Molecule `CCOC(=O)c1ccc(-c2cc3c(NCCCN4CCOCC4)ncnc3[nH]2)cc1` gave a melting point of 231 to 234 °C. Then `C=C(Nc1nc(-c2ccccc2)c(-c2nc3ccccc3c(=O)n2-c2ccccc2)s1)c1ccco1`, with 271 to 272 °C; and `O=C(NCCc1cccc2ccc(O)cc12)C1CC1`, with 140 to 141 °C. In the case of `O=C(CCc1ccc(NC(=O)C(F)(F)F)c([N+](=O)[O-])c1)N1CCCCC1` it was 102 to 103 °C; in that of `O=C1O[C@H](Cc2ccon2)CN1c1ccc(N2CCC3(CC2)OCCO3)c(F)c1`, 120 to 122 °C.

Molecule `CCCC(=O)OCC(=O)C12OCOC1CC1C3CCC4=CC(=O)C=CC4(C)C3C(O)CC12C` (stereo not drawn) gave a melting point of 140 to 141 °C.

As to `CCCCSCC(=O)c1cc2c(cc1Cl)n(C)c(=O)n2C`, the melting point lay within 66 to 68 °C. For `CCCCCCCCCCCC(=O)Nc1ccc(NC(=O)CCNC(=O)C2OC(C)(C)OCC2(C)C)cc1` (stereo not drawn), the melting point lay within 144 to 145 °C. Then `COC(=O)c1ccc(CCNCC(O)c2ccccc2Cl)cc1` (stereo not drawn), with 94 to 95 °C; and `CC(C)[C@H](NC(=O)N(C)Cc1cscn1)C(=O)N[C@@H](Cc1ccccc1)[C@@H](O)C[C@H](Cc1ccccc1)NC(=O)OCc1cccnc1`, with 71 to 74 °C; and `C[C@@H](NC(=O)C1(C)CC1)c1ccc2ccccc2c1`, with 91 °C.

For the molecule `Cc1cc(C)cc(P(=O)(c2cc(C)cc(C)c2)c2ccc3ccccc3c2-c2c(P(=O)(c3cc(C)cc(C)c3)c3cc(C)cc(C)c3)ccc3ccccc23)c1`, the melting point lay within 287 to 290 °C.

Molecule `NC(=O)c1sc2nccc(N3CCCN(c4ccc(OCc5ccccc5)cc4)CC3)c2c1N` yielded a melting point of 211 to 213 °C. Then `CC(O)=C(C#N)C(=O)Nc1ccc(C(C)(C)C)cc1`, with 134 to 135 °C; and `CN(c1ccc(C(=O)O)cc1)c1cc2c3c(c1)CCCC3CCC2`, with 288 to 289 °C; and `COCN1C(C)=C(C(=O)OCc2ccccc2)C(c2ccccc2C(F)(F)F)C(C(=O)OCc2ccccc2)=C1C`, with 94 to 95 °C. `O=C(O)CC(=O)Nc1c(-c2ccccc2)c(=O)[nH]c2cc(Cl)ccc12` returned a melting point of 260 °C. The molecule `CCOC(=O)C(Cc1cc2cccnc2n(-c2cccc([N+](=O)[O-])c2)c1=O)C(=O)c1ccncc1` (stereo not drawn) gave a melting point of 72 to 73 °C. The molecule `COc1cc(O)c(C#N)c2cc(-c3ccc(O)cc3)oc12` gave a melting point of 286 to 288 °C. Then `CCn1cc(C(=O)NCc2ccc(Cl)cc2)c(=O)c2cc(I)sc21`, with 214 to 218 °C; and `CCCCCCCC/C=C\CCCCCCCCOc1cccc(N(CC(=O)OC)CC(=O)OC)c1`, with 36 to 37 °C; and `CCc1nn2c(N)cc(Cl)nc2c1S(=O)(=O)c1ccccc1`, with greater than 220 °C. As to `CNS(=O)(=O)OCC(COc1ccccc1OC)OS(N)(=O)=O` (stereo not drawn), the melting point was 110 to 113 °C. In the case of `CCCCN(Cc1ccc(-c2ccccc2-c2nnn[nH]2)cc1)c1ncn(C)c1C(=O)OCC` it was 203 to 204 °C. The molecule `COc1ccc2c(c1)CCC1C2CCC2(C)C1CCC2N(C)CCOCCO` (stereo not drawn) came in with a melting point of 102 °C. In the case of `CCCc1nc2c(N)nc3cc(OCCN4CCCCC4)ccc3c2s1` it was 141 to 143 °C; in that of `CCCCCCCCCCCCn1nnnc1Cc1ccccc1`, 50 to 51 °C. In turn, `CCOC(=O)C1=C(CO)NC(C)=C(C(=O)OCCOCc2ccccc2)C1c1ccccc1[N+](=O)[O-]` (stereo not drawn) came in with a melting point of 96 to 97 °C. In turn, `C[C@@H](CNC(=O)COC(=O)c1cc(S(N)(=O)=O)c(Cl)cc1NCc1ccco1)O[N+](=O)[O-]` displayed a melting point of 125 to 138 °C.

Consider `CCOC(=O)c1oc2ccc(Cl)cc2c1C(=O)OCC`, for which the melting point is 33 to 35 °C.

Turning to `Cc1ccc(NC(=O)C(C)(C)CCCOc2cc(C)ccc2C)c(C)c1`, the melting point lay within 80 to 82 °C. In the case of `CC(C)c1nn(-c2ccc(C(F)(F)F)cn2)cc1CCCOc1cc(CCC(=O)O)n(C)n1` it was 131 to 132 °C. `CCc1nc(C)c(CC(=O)N(CC)CC)c(=O)n1Cc1ccc(-c2ccccc2-c2nnn[nH]2)cc1` showed a melting point of 125 to 131 °C. `Cc1ncc2n1C(=O)N(C1CCN(C(=O)CCS(=O)(=O)c3ccc4cc(Cl)ccc4c3)CC1)C2` showed a melting point of 195 °C. In the case of `c1ccc(CSc2nc3cnccc3[nH]2)cc1` it was 175 to 177 °C; in that of `COCCc1nc2c(N)nc3ccccc3c2n1CCCNS(=O)(=O)c1ccc(C)cc1`, 189 to 191 °C. Then `COC(=O)c1cnc(F)cn1`, with 55.6 to 56.7 °C. In turn, `CCOCc1nc2c(N)nc3ccccc3c2n1CC(C)(C)O` registered a melting point of 190 to 193 °C.

In turn, `COc1ccc(-c2sc3cc(OC)ccc3c2C(=O)c2ccc(Br)cc2)cc1` returned a melting point of 127 to 129 °C. Take `O=C1C2=C(CCCC2)C(=O)N1c1ccc(Br)cc1F`: the melting point is 102 °C. Take `CCOc1cc(=O)oc2cc(C)ccc12`: the melting point was 142 to 143 °C. In the case of `COC(=O)c1ccc(C(C)(C)CO)cc1` it was 44 to 45 °C. In the case of `CCOC(=O)CCCCc1cccc(-c2nc(=O)c3ccccc3s2)n1`, the melting point was 87 to 88 °C.

`CCON=C1CN(c2c(F)c(N)c3c(=O)c(C(=O)O)cn(C4CC4)c3c2F)CC12CN(C(=O)OC(C)(C)C)C2` gave a melting point of 235 to 236 °C. As for `O=c1ccc2ccc(Br)cc2[nH]1`, the melting point was determined as 295 °C. Then `CCc1c(CCC(=O)O)c[nH]c1C=O`, with 128 to 134 °C.

Regarding `CC(=O)NC(CCc1ccc(C(O)CCCCCc2ccccc2)cc1)(CO[Si](C)(C)C(C)(C)C)CO[Si](C)(C)C(C)(C)C` (stereo not drawn), the melting point lay within 118 to 120 °C. In the case of `Cc1cn(C2CCN(c3c(F)cc4c(=O)c(C(=O)O)cn(C5CC5)c4c3F)C2)nn1` (stereo not drawn) it was 219 to 220 °C. Then `OCc1nc(/C=C/c2ccccc2)ns1`, with 119 to 120 °C. Then `COC(=O)c1ccccc1CS(=O)(=O)N=c1nc2nc(OC)cc(OC)n2s1`, with 153 to 154 °C; and `Cc1cc(F)ccc1-c1nc(NCCO)nc2c1ccc(=O)n2-c1ccccc1F`, with 120 to 124 °C; and `CC(C)(CCc1nnn[nH]1)c1ccc(C(=O)Nc2cn3cc(Cl)ccc3n2)cc1`, with 250 to 251 °C. Regarding `N#CCC(C#N)S(=O)(=O)c1ccc(Cl)cc1` (stereo not drawn), the melting point was in the range of 130 to 137 °C.

`CCP(CC)c1ccc(Cl)cc1` displayed a melting point of 77 to 79 °C. Turning to `Cn1c2ccccc2c2c3c(c4c5cc(O)ccc5n(CCC#N)c4c21)C(=O)NC3=O`, the melting point was 303 to 306 °C. In the case of `CC1(C)NC(=O)c2ccc(OCCBr)cc2O1`, the melting point was 156 to 158 °C. In the case of `Cc1[nH]c(=O)ccc1-c1ccc2nccn2c1` it was 290 to 292 °C.

Take `N#Cc1ccc(Cc2nc3ccccc3[nH]2)cc1`: the melting point was 133 to 136 °C. In the case of `CCC(O)c1nc(C)nc2c1c(C)c(C)n2-c1c(C)cc(C)cc1C` (stereo not drawn) it was 143 to 144 °C; in that of `CC(C)c1cc(N)c(S(N)(=O)=O)cc1S(N)(=O)=O`, 185 to 186 °C; in that of `O=c1ccn(-c2ccccc2Cl)nc1-c1ccnn1-c1ccccc1`, 138 to 139 °C.

As a reminder, the melting point is the temperature, or range, at which the solid turns liquid.
